From the supplement of paper PMC10307832

Key:
Assay in all cases: relative viability (nuclei count vs DMSO), 5 days (fraction); higher = more cells survive
Olaparib + Foretinib = compound: O=C(c1cc(Cc2n[nH]c(=O)c3ccccc23)ccc1F)N1CCN(C(=O)C2CC2)CC1 [Olaparib] + COc1cc2c(Oc3ccc(NC(=O)C4(C(=O)Nc5ccc(F)cc5)CC4)cc3F)ccnc2cc1OCCCN1CCOCC1 [Foretinib] (partner 0.25 µM)
In short: (§1)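 Five library-drug doses in √10 steps were combined with a fixed anchor-drug dose, or a single drug was given alone, by pin tool to lung cancer cell lines in 1536-well plates the day after seeding. Nuclei were stained and counted after 5 days. Relative viability is the nuclei count in treated wells over that in vehicle wells, taken as the median of duplicate plates.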

Carfilzomib + Foretinib = compound: CC(C)C[C@H](NC(=O)[C@H](CCc1ccccc1)NC(=O)CN1CCOCC1)C(=O)N[C@@H](Cc1ccccc1)C(=O)N[C@@H](CC(C)C)C(=O)[C@@]1(C)CO1 [Carfilzomib] + COc1cc2c(Oc3ccc(NC(=O)C4(C(=O)Nc5ccc(F)cc5)CC4)cc3F)ccnc2cc1OCCCN1CCOCC1 [Foretinib] (partner 0.25 µM)
In short: as §1

Carfilzomib + Pemetrexed = compound: CC(C)C[C@H](NC(=O)[C@H](CCc1ccccc1)NC(=O)CN1CCOCC1)C(=O)N[C@@H](Cc1ccccc1)C(=O)N[C@@H](CC(C)C)C(=O)[C@@]1(C)CO1 [Carfilzomib] + Nc1nc2[nH]cc(CCc3ccc(C(=O)N[C@@H](CCC(=O)O)C(=O)O)cc3)c2c(=O)[nH]1 [Pemetrexed] (partner 0.2 µM)
In short: as §1

Carfilzomib + Navitoclax = compound: CC(C)C[C@H](NC(=O)[C@H](CCc1ccccc1)NC(=O)CN1CCOCC1)C(=O)N[C@@H](Cc1ccccc1)C(=O)N[C@@H](CC(C)C)C(=O)[C@@]1(C)CO1 [Carfilzomib] + CC1(C)CCC(c2ccc(Cl)cc2)=C(CN2CCN(c3ccc(C(=O)NS(=O)(=O)c4ccc(N[C@H](CCN5CCOCC5)CSc5ccccc5)c(S(=O)(=O)C(F)(F)F)c4)cc3)CC2)C1 [Navitoclax] (partner 0.5 µM)
In short: as §1

Cell Line | relative viability (Olaparib + Foretinib; first compound 0.08 µM) | relative viability (Olaparib + Foretinib; first compound 0.253 µM) | relative viability (Olaparib + Foretinib; first compound 2.53 µM) | relative viability (Olaparib + Foretinib; first compound 8 µM) | relative viability (Carfilzomib + Foretinib; first compound 0.001 µM) | relative viability (Carfilzomib + Foretinib; first compound 0.003162 µM) | relative viability (Carfilzomib + Foretinib; first compound 0.01 µM) | relative viability (Carfilzomib + Foretinib; first compound 0.03162 µM) | relative viability (Carfilzomib + Foretinib; first compound 0.1 µM) | relative viability (Carfilzomib + Pemetrexed; first compound 0.001 µM) | relative viability (Carfilzomib + Pemetrexed; first compound 0.003162 µM) | relative viability (Carfilzomib + Pemetrexed; first compound 0.01 µM) | relative viability (Carfilzomib + Pemetrexed; first compound 0.03162 µM) | relative viability (Carfilzomib + Pemetrexed; first compound 0.1 µM) | relative viability (Carfilzomib + Navitoclax; first compound 0.001 µM) | relative viability (Carfilzomib + Navitoclax; first compound 0.003162 µM) | relative viability (Carfilzomib + Navitoclax; first compound 0.01 µM) | relative viability (Carfilzomib + Navitoclax; first compound 0.03162 µM) | relative viability (Carfilzomib + Navitoclax; first compound 0.1 µM)
NCI-H2009 | 1.35 | 1.16 | 1.17 | 1.06 | 1.25 | 1.26 | 1.21 | 0.355 | 0.0701 | 1.06 | 1.05 | 1.04 | 0.868 | 0.124 | 1.24 | 1.2 | 1.15 | 0.993 | 0.0572
NCI-H2023 | 0.931 | 0.733 | 0.775 | 0.733 | 0.957 | 0.896 | 0.894 | 0.948 | 0.0777 | 0.237 | 0.247 | 0.227 | 0.141 | 0.0695 | 1 | 0.967 | 1.02 | 0.907 | 0.0939
NCI-H2085 | 1.1 | 0.831 | 0.916 | 0.886 | 0.909 | 0.925 | 0.829 | 0.249 | 0.226 | 0.784 | 0.941 | 0.968 | 0.54 | 0.301 | 1.08 | 1.23 | 1.02 | 0.436 | 0.242
NCI-H2087 | 1.08 | 0.921 | 0.949 | 0.736 | 1.03 | 1.15 | 0.693 | 0.0563 | 0.0605 | 0.624 | 0.656 | 0.57 | 0.0837 | 0.0365 | 1.07 | 0.97 | 0.721 | 0.115 | 0.0804
NCI-H2126 | 1.06 | 1.15 | 1.36 | 1.18 | 1.2 | 1.3 | 1.2 | 1.12 | 0.48 | 0.612 | 0.702 | 0.678 | 0.617 | 0.424 | 0.826 | 0.884 | 0.871 | 0.865 | 0.592
NCI-H2170 | 1.01 | 0.98 | 0.994 | 0.948 | 1.05 | 1.02 | 1.06 | 1.06 | 0.397 | 0.262 | 0.277 | 0.254 | 0.24 | 0.183 | 0.698 | 0.688 | 0.617 | 0.409 | 0.197
NCI-H2228 | 0.884 | 0.767 | 0.805 | 0.765 | 0.902 | 0.883 | 0.633 | 0.0979 | 0.096 | 0.316 | 0.364 | 0.361 | 0.0862 | 0.143 | 1.06 | 1.56 | 0.788 | 0.699 | 0.0563
NCI-H2347 | 0.902 | 0.945 | 0.786 | 0.977 | 0.958 | 0.909 | 1.43 | 0.698 | 0.181 | 0.456 | 0.44 | 0.423 | 0.403 | 0.272 | 0.698 | 0.931 | 0.733 | 0.512 | 0.235
